Test results reported in PMC6143478, “Lipophilic activated ester prodrug approach for drug delivery to the intestinal lymphatic system” (Journal of Controlled Release, 2018).
≈ marks a conversion by molar mass, not a printed value. Where two headings read alike, the source gives them in different places.

Experiments:
human chylomicrons (CM) = experiment: Ex vivo association with human plasma-derived chylomicrons; type: in vitro ADME; settings: in words
From the text: The protocol for preparation of human plasma-derived CM emulsion was approved by the Faculty of Medicine and Health Sciences Research Ethics Committee, Queens Medical Centre, Nottingham University Hospitals (BT12102015 CBS SoP). Healthy male volunteers of 19–40 years old and with body mass index of 18.5–25.0 were enrolled in the study after providing informed consent. The participants were excluded if any medication was used within one week prior to enrolment. On the morning of the study, participants received a high-fat meal (equivalent to a full English breakfast). Between 3 and 4 h following breakfast, 30 mL of blood was collected using heparinised tubes (Vacutainer® Blood Collection Tubes) and centrifuged (800 g, 10 min, 15 °C) to obtain plasma.
CM separation was performed as previously reported with minor modifications. Briefly, KBr (0.57 g) was mixed with 4 mL of plasma to yield density of 1.1 g/mL. PBS with densities of 1.006, 1.019, and 1.063 g/mL were prepared by adding appropriate amounts of KBr. These PBS of different densities were layered on top of the plasma to build density gradient layers in polyallomer ultracentrifuge tubes. The samples were then centrifuged at 268,350 g for 35 min at 15 °C using an ultracentrifuge (SORVALL® TH-641 Rotor, Thermo Fisher Scientific, UK). Following ultracentrifugation, approximately 1 mL of the upper layer containing CM was collected. TG concentration of CM emulsion was assessed using the TG enzymatic kit (Sigma Aldrich, Dorset, UK). TG concentration of the emulsion was adjusted to 100 mg/dL by diluting with PBS of 1.006 g/mL density. The CM emulsion was stored at 4 °C until the association assay (˂24 h).
The association of the compounds with artificial lipid particle emulsion and human CM was assessed using previously reported methodology with minor modifications. Briefly, 1 mL of artificial lipid particle or CM emulsions (TG concentration 100 mg/dL) was used for the association assay. The emulsion was spiked with stock solutions of tested compounds (in acetonitrile) to give a final concentration of 1.755 μM. The reaction mixtures were incubated at 37 °C for 1 h with magnetic stirring at 300 rpm. Following the incubation, density gradient ultracentrifugation was applied as described above to isolate the artificial lipid particles or CM associated with the tested compounds from the rest of the experimental medium. All experiments were conducted in quintuplicates or above.

[1] = TG solubility measurement in sesame oil; type: physicochemical; settings: oil or lipid, thermodynamic from solid, 37 °C
Protocol: Compounds were dissolved in fresh aliquots of sesame oil in excessive amounts in glass vials (in triplicate) and stirred using a magnetic stirring bar at 37 °C for 72 h. The mixture was then filtered by centrifugation in a Costar Spin-X Centrifuge Tube (Fisher Scientific, Loughborough, UK) at 2400 g for 5 min. The filtrates were analysed for concentration of the tested compounds by means of HPLC.

VAL cells = experiment: Cell growth inhibition MTT assay, VAL; type: cell-based; settings: 72 h, RA 0.400 μM (0.625% × GI50 of RA)
Protocol: (§1) DLBCL cell lines of DOHH2 and VAL were obtained from the Gene Regulation and RNA Biology group in University of Nottingham. Cell growth inhibition was assessed by MTT assay with a minor modification from previously reported methods [[25], [26], [27]]. Cells were seeded at a density of 2000 cells/well and allowed to adapt overnight. Test compounds were serial-diluted with dimethyl sulfoxide (DMSO) and spiked on the next day to yield 0.1% (v/v) DMSO. Control wells were treated with 0.1% DMSO vehicle alone. At the time of drug addition, separately prepared wells were processed for Tzero readings as previously described. The treated cells were incubated further for 72 h at 37 °C and processed for cell growth assessments.
(§2) Assessment of statistical significance of differences between two groups was conducted by means of two-tailed unpaired t-test. Statistical significance among three or more groups was assessed by means of a one-way ANOVA followed by Tukey's multiple comparisons test. Statistical significance was declared when a p-value was lower than 0.05. […] Pharmacokinetic parameters were calculated by non-compartmental analysis using Phoenix WinNonlin 6.3 software (Pharsight, Mountain View, CA, USA).
(§3) The anticancer effects of BEX and RA were assessed by MTT assay using DLBCL cell lines. The GI50 of each drug was firstly determined in each cell line. […]

[2] = Plasma pharmacokinetics following oral administration in rats; type: in vivo, rat; settings: for AUC(0-inf) / AUC(0-t) / half-life / Cmax: male, Sprague Dawley, rat, plasma, po, 10 mg/kg, dose equivalent to 10 mg/kg BEX; for AUC(0-inf) / AUC(0-t) / half-life: BEX in plasma; for Cmax: Cmax of BEX in plasma, read-out: C0 or Cmax; for Foral: oral bioavailability of BEX, calculated on AUC0→t after i.v. BEX 2.5 mg/kg [33]
Protocol: (§4) The protocols for pharmacokinetic and biodistribution experiments in this study were reviewed and approved by the University of Nottingham Ethical Review Committee in accordance with the Animals [Scientific Procedures] Act 1986. Male Sprague Dawley rats (Charles River Laboratories, UK) weighing 350–380 g were used. The animals were housed in the Bio Support Unit, University of Nottingham. Continuous lymph collection was performed according to a protocol approved by the Institutional Animal Care and Use Committee at Rutgers, The State University of New Jersey. Male Sprague Dawley rats (Envigo, Inc., NJ, USA) weighing 300–350 g were used for the continuous lymph collection. Animals were allowed free access to food and water and were acclimatised for at least 6 days prior to any procedures at both institutions in a controlled-temperature environment with 12 h light/dark cycles.
Jugular vein cannulation surgery procedures were conducted under general anaesthesia for blood sampling. The animals were allowed two days to recover following surgery and were fasted up to 12 h prior to experiments with free access to drinking water. Formulations were prepared at concentrations equivalent to 2.5 mg/mL and 10 mg/mL of active drug for intravenous and oral administration, respectively. Solutions of the tested compounds in PEG400 were used as the dosing vehicle for intravenous administration. For oral administration, all prodrugs were administered as a solution in sesame oil to stimulate intestinal lymphatic transport. For oral administration of BEX and RA, oral gavage of sesame oil was administered prior to administration of BEX or RA solution in PEG400 due to low solubility of the two compounds in TG. In the lipid-free group BEX was administered orally formulated as a solution in PEG400. The formulations were administered by an oral gavage for oral administration or via the jugular vein cannula followed by 0.3 mL heparinised saline (50 IU/mL) for intravenous injection. Blood samples of 250 μL volume were collected from the cannula at pre-determined time points following administration. NaF (10 mg/mL) was used as an anticoagulant and inhibitor of esterase activity. Blood samples were centrifuged at 3000 g for 10 min to obtain plasma.
(§5) A combination of protein precipitation and liquid-liquid extraction was applied to samples prior to HPLC injection. To 100 μL sample, 300 μL of acetonitrile was added for protein precipitation and then 300 μL of pH modifier was added when necessary (Supplementary Material Table S2). […] The organic layer was separated and evaporated under N2 gas. Reconstitution solvent (100 μL) was used as detailed in Supplementary Material Table S2 and 40 μL was injected into the HPLC-UV system. […] Therefore, storage and preparation of all samples were performed within the time frame and conditions of confirmed stability.
(§6) The HPLC-UV system consisting of a separation module (Waters Alliance 2695) equipped with a UV detector (Waters 996) was used for analysis. Samples in the autosampler were maintained at 4 °C and the column at 40 °C. The stationary and mobile phases were used as specified in Supplementary Material Table S2. BEX and its prodrugs were detected at 259 nm and RA and its prodrugs at 357 nm.
Assessment of statistical significance of differences between two groups was conducted by means of two-tailed unpaired t-test. Statistical significance among three or more groups was assessed by means of a one-way ANOVA followed by Tukey's multiple comparisons test. Statistical significance was declared when a p-value was lower than 0.05. The analyses were performed on GraphPad Prism version 7.01 (GraphPad Software, Inc., La Jolla, CA, USA). The concentrations that inhibited cell growth by 50% (GI50) were also calculated using GraphPad Prism and isobole plots were presented following a previously reported method to assess synergy between BEX and RA [28]. […]

DOHH2 cells = experiment: Cell growth inhibition MTT assay, DOHH2; type: cell-based; settings: 72 h, RA 0.425 μM (0.625% × GI50 of RA)
Protocol: as §1, §2, §3

[3] = Biodistribution to mesenteric lymph nodes (MLN) and lymph following oral administration in rats; type: in vivo; settings: BEX analyte, dose equivalent to 10 mg/kg BEX, rat, in words
Protocol: as §4
Formulations were prepared as described in the above pharmacokinetic study and were delivered by an oral gavage. Animals were euthanised at pre-determined time points. Blood was collected from the posterior vena cava and lymph samples were taken from the mesenteric lymph duct. MLNs were dissected and collected as previously described. The MLNs were isolated from surrounding tissue with care not to compromise the integrity of the lymph nodes. The MLNs were homogenised (POLYTRON® PT 10–35 GT, Kinematica AG, Luzern, Switzerland) with 10 mg/mL NaF in water (1,2, w/v) on an ice bath prior to sample preparation for HPLC analysis.
as §5, §6

AUC(0-inf) ([2]; p.o. (lipid-based)) | AUC(0-t) ([2]; p.o. (lipid-based)) | half-life ([2]; p.o. (lipid-based)) | AUC(0-t) ([2]; p.o. (lipid-free)) | half-life ([2]; p.o. (lipid-free)) | AUC(0-inf) ([2]; p.o. (lipid-free, PEG400)) | Cmax ([2]; p.o. (lipid-based)) | Cmax ([2]; p.o. (lipid-free)) | Foral ([2]; p.o. (lipid-based)) | Foral ([2]; p.o. (lipid-free)) | concentrations of BEX in intestinal lymphatics (MLNs, lymph) relative to plasma [3] | SMILES | difference in affinity for artificial emulsion versus natural human CM (human chylomicrons (CM)) | solubility at 72 h [1] | cell growth inhibition by BEX in conjunction with RA (VAL cells) | cell growth inhibition by BEX in conjunction with RA (DOHH2 cells)
 |  |  |  |  |  |  |  |  |  |  | C=C(c1ccc(C(=O)OCC(=O)N(CC)CC)cc1)c1cc2c(cc1C)C(C)(C)CCC2(C)C [prodrug 20] | significant differences | 2670 ± 60 µg/mL (≈ 5.78 mM) |  | 
6620 ± 1310 ng·h/mL | 5660 ± 1760 ng·h/mL | 3.7 ± 1.2 h | 4910 ± 1790 ng·h/mL | 3 ± 0.7 h | 5840 ± 2140 ng·h/mL | 1100 ± 432 ng/mL | 899 ± 338 ng/mL | 30.6 ± 9.5% | 26.5 ± 9.6% | lower than those in plasma | C=C(c1ccc(C(=O)O)cc1)c1cc2c(cc1C)C(C)(C)CCC2(C)C [BEX, bexarotene] |  |  | significantly and synergistically inhibited | significantly and synergistically inhibited
